Results from patent US8163771B2, “11 β-HSD1 modulators” (Exelixis, Inc., priority 2008, dated 2012).

Biological target: T1, recombinant human 11 β-HSD1 (Homo sapiens, UniProt P28845)
T1 construct: made in house; host or cells: E. coli
Assay: 11 β-HSD1 SPA Assay (Scintillation Proximity Assay)
Assay type: biochemical
In short: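 E. coli-expressed human enzyme (30-100 nM) with tritiated cortisone 40 nM and NADPH 1 mM in HEPES buffer pH7.4, 2 hours at room temperature. Stopped with protein A SPA beads carrying anti-cortisol antibody and glycyrrhetinic acid; counted after overnight incubation. IC50 from percent inhibition between no-enzyme and no-compound signals.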

T1 sequence (P28845 whole entry): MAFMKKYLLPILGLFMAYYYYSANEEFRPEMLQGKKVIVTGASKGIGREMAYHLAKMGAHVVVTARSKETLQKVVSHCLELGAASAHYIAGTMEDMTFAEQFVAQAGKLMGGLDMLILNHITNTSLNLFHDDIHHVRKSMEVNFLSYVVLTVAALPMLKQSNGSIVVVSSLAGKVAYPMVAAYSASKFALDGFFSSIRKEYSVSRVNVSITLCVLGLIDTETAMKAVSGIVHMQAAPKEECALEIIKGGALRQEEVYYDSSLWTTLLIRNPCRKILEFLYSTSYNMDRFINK

For `CC(C)(Oc1c(Cl)cc(F)cc1C(F)(F)F)C(=O)N[C@H]1C[C@H]2CC[C@@H](C1)N2c1ccc(S(C)(=O)=O)cc1` [Example 252, 2-{[2-chloro-4-fluoro-6-(trifiuoromethyl)phenyl]oxy}-2-methyl-N-{8-[4-(methylsulfonyl)phenyl]-8-azabicyclo[3.2.1]oct-3-endo-yl}propanamide], the IC50 was under 200 nM.
Molecule `COc1ccc(OC(C)(C)C(=O)NC2CC3CCC(C2)N3c2ccc(S(C)(=O)=O)cn2)c(Cl)c1` (stereo not drawn) [Example 253, 2-{[2-chloro-4-(methyloxy)phenyl]oxy}-2-methyl-N-{8-[5-(methylsulfonyl)pyridin-2-yl]-8-azabicyclo[3.2.1]oct-3-endo-yl}propanamide] has an IC50 of under 200 nM.
`COc1ccc(OC(C)(C)C(=O)N[C@H]2C[C@H]3CC[C@@H](C2)N3c2ccc(S(C)(=O)=O)cc2)c(Cl)c1` [Example 254, 2-{[2-chloro-4-(methyloxy)phenyl]oxy}-2-methyl-N-{8-[4-(methylsulfonyl)phenyl]-8-azabicyclo[3.2.1]oct-3-endo-yl}propanamide] gave an IC50 of under 200 nM.
`CC(C)(Oc1ccccc1C(F)(F)F)C(=O)N[C@H]1C[C@H]2CC[C@@H](C1)N2c1ccc(S(C)(=O)=O)cn1` [Example 255, 2-methyl-N-{8-[5-(methylsulfonyl)pyridin-2-yl]-8-azabicyclo[3.2.1]oct-3-endo-yl}-2-{[2-(trifluoromethyl)phenyl]oxy}propanamide] gave an IC50 of under 200 nM.
`CC(C)(Oc1ccccc1C(F)(F)F)C(=O)N[C@H]1C[C@H]2CC[C@@H](C1)N2c1ccc(S(N)(=O)=O)cn1` [Example 256, N-{8-[5-(aminosulfonyl)pyridin-2-yl]-8-azabicyclo[3.2.1]oct-3-endo-yl}-2-methyl-2-{[2-(trifluoromethyl)phenyl]oxy}propanamide] showed an IC50 of under 200 nM.
`CC(C)(Oc1ccccc1C(F)(F)F)C(=O)N[C@H]1C[C@H]2CC[C@@H](C1)N2c1ccc(S(C)(=O)=O)cc1` [Example 257, 2-methyl-N-{8-[4-(methylsulfonyl)phenyl]-8-azabicyclo[3.2.1]oct-3-endo-yl}-2-{[2-(trifluoromethyl)phenyl]oxy}propanamide] showed an IC50 of under 200 nM.
For `CC(C)(Oc1c(F)cc(F)cc1F)C(=O)N[C@H]1C[C@H]2CC[C@@H](C1)N2c1ccc(S(C)(=O)=O)cn1` [Example 258, 2-methyl-N-{8-[5-(methylsulfonyl)pyridin-2-yl]-8-azabicyclo[3.2.1]oct-3-endo-yl}-2-[(2,4,6-trifluorophenyl)oxy]propanamide], the IC50 was under 200 nM.
Work on `CC(C)(Oc1c(F)cc(F)cc1F)C(=O)N[C@H]1C[C@H]2CC[C@@H](C1)N2c1ccc(S(N)(=O)=O)cn1` [Example 259, N-{8-[5-(aminosulfonyl)pyridin-2-yl]-8-azabicyclo[3.2.1]oct-3-endo-yl}-2-methyl-2-[(2,4,6-trifluorophenyl)oxy]propanamide] yielded an IC50 of under 200 nM.
In the case of `CC(C)(Oc1c(F)cc(F)cc1F)C(=O)N[C@H]1C[C@H]2CC[C@@H](C1)N2c1ccc(S(C)(=O)=O)cc1` [Example 260, 2-methyl-N-{8-[4-(methylsulfonyl)phenyl]-8-azabicyclo[3.2.1]oct-3-endo-yl}-2-[(2,4,6-trifluorophenyl)oxy]propanamide], the IC50 is reported as under 200 nM.
Work on `CC(C)(Oc1cc(F)c(Cl)cc1Cl)C(=O)N[C@H]1C[C@H]2CC[C@@H](C1)N2c1ccc(S(N)(=O)=O)cn1` [Example 261, N-{8-[5-(aminosulfonyl)pyridin-2-yl]-8-azabicyclo[3.2.1]oct-3-endo-yl}-2-[(2,4-dichloro-5-fluorophenyl)oxy]-2-methylpropanamide] yielded an IC50 of under 200 nM.
Molecule `CC(C)(Oc1cc(F)c(F)cc1Cl)C(=O)N[C@H]1C[C@H]2CC[C@@H](C1)N2c1ccc(S(N)(=O)=O)cn1` [Example 262, N-{8-[5-(aminosulfonyl)pyridin-2-yl]-8-azabicyclo[3.2.1]oct-3-endo-yl}-2-[(2-chloro-4,5-difluorophenyl)oxy]-2-methylpropanamide] has an IC50 of under 200 nM.
Work on `CC(C)(Oc1ccc(Cl)cc1C(F)(F)F)C(=O)N[C@H]1C[C@H]2CC[C@@H](C1)N2c1ccc(S(C)(=O)=O)cn1` [Example 263, 2-{[4-chloro-2-(trifluoromethyl)phenyl]oxy}-2-methyl-N-{8-[5-(methylsulfonyl)pyridin-2-yl]-8-azabicyclo[3.2.1]oct-3-endo-yl}propanamide] yielded an IC50 of under 200 nM.
`CC(C)(Oc1ccc(F)cc1)C(=O)N[C@H]1C[C@H]2CC[C@@H](C1)N2c1ccc(S(N)(=O)=O)cn1` [Example 264, N-{8-[5-(aminosulfonyl)pyridin-2-yl]-8-azabicyclo[3.2.1]oct-3-endo-yl}-2-[(4-fluorophenyl)oxy]-2-methylpropanamide] was tested, and the IC50 was under 200 nM.
With `CC(C)(Oc1ccc(F)cc1Cl)C(=O)N[C@H]1C[C@H]2CC[C@@H](C1)N2c1ccc(C(=O)NC2CC2)cn1` [Example 265, 6-[3-endo-({2-[(2-chloro-4-fluorophenyl)oxy]-2-methylpropanoyl}amino)-8-azabicyclo[3.2.1]oct-8-yl]-N-cyclopropylpyridine-3-carboxamide] the IC50 was under 200 nM.
With `CC(C)(Oc1ccc(-c2ccccc2)cc1Cl)C(=O)N[C@H]1C[C@H]2CC[C@@H](C1)N2c1ccc(C(N)=O)cn1` [Example 266, 6-[3-endo-({2-[(3-chlorobiphenyl-4-yl)oxy]-2-methylpropanoyl}amino)-8-azabicyclo[3.2.1]oct-8-yl]pyridine-3-carboxamide] the IC50 was under 200 nM.
Molecule `CC(C)(Oc1cc(F)ccc1C(F)(F)F)C(=O)N[C@H]1C[C@H]2CC[C@@H](C1)N2c1ccc(S(C)(=O)=O)cn1` [Example 267, 2-{[5-fluoro-2-(trifluoromethyl)phenyl]oxy}-2-methyl-N-{8-[5-(methylsulfonyl)pyridin-2-yl]-8-azabicyclo[3.2.1]oct-3-endo-yl}propanamide] has an IC50 of under 200 nM.
Work on `CC(C)(Oc1ccc(Cl)cc1Cl)C(=O)NC1CC2CCC(C1)N2c1ccc(C(=O)NC2CC2(F)F)cn1` (stereo not drawn) [Example 268, 6-[3-endo-({2-[(2,4-dichlorophenyl)oxy]-2-methylpropanoyl}amino)-8-azabicyclo[3.2.1]oct-8-yl]-N-(2,2-difluorocyclopropyl)pyridine-3-carboxamide] yielded an IC50 of under 200 nM.
`CC(C)(Oc1ccc(F)cc1S(C)(=O)=O)C(=O)N[C@H]1C[C@H]2CC[C@@H](C1)N2c1ccc(C(N)=O)cn1` [Example 269, 6-{3-endo-[(2-{[4-fluoro-2-(methylsulfonyl)phenyl]oxy}-2-methylpropanoyl)amino]-8-azabicyclo[3.2.1]oct-8-yl}pyridine-3-carboxamide] was tested, and the IC50 was under 200 nM.
Molecule `CC(C)(Oc1cc(Cl)c(F)cc1Cl)C(=O)N[C@H]1C[C@H]2CC[C@@H](C1)N2c1ccc(NS(C)(=O)=O)cn1` [Example 270, 2-[(2,5-dichloro-4-fluorophenyl)oxy]-2-methyl-N-(8-{5-[(methylsulfonyl)amino]pyridin-2-yl}-8-azabicyclo[3.2.1]oct-3-endo-yl)propanamide] has an IC50 of under 200 nM.
For `CC(C)(Oc1ccc2ccccc2c1Cl)C(=O)N[C@H]1C[C@H]2CC[C@@H](C1)N2c1ccc(C(N)=O)cn1` [Example 271, 6-[3-endo-({2-[(1-chloronaphthalen-2-yl)oxy]-2-methylpropanoyl}amino)-8-azabicyclo[3.2.1]oct-8-yl]pyridine-3-carboxamide], the IC50 was under 200 nM.
For `CC(C)(Oc1ccc(F)c(C(F)(F)F)c1)C(=O)N[C@H]1C[C@H]2CC[C@@H](C1)N2c1ccc(S(C)(=O)=O)cn1` [Example 272, 2-{[4-fluoro-3-(trifluoromethyl)phenyl]oxy}-2-methyl-N-{8-[5-(methylsulfonyl)pyridin-2-yl]-8-azabicyclo[3.2.1]oct-3-endo-yl}propanamide], the IC50 was under 2000 nM.
Work on `CC(C)(Oc1ncc(Cl)cc1C(F)(F)F)C(=O)N[C@H]1C[C@H]2CC[C@@H](C1)N2c1ccc(C(=O)NCC(F)(F)F)cn1` [Example 273, 6-{3-endo-[(2-{[5-chloro-3-(trifluoromethyl)pyridin-2-yl]oxy}-2-methylpropanoyl)amino]-8-azabicyclo[3.2.1]oct-8-yl}-N-(2,2,2-trifluoroethyl)pyridine-3-carboxamide] yielded an IC50 of under 200 nM.
Work on `CC(C)(C(=O)N[C@H]1C[C@H]2CC[C@@H](C1)N2c1ccc(C(N)=O)cn1)S(=O)(=O)c1ccc(Cl)cc1Cl` [Example 274, 6-[3-endo-({2-[(2,4-dichlorophenyl)sulfonyl]-2-methylpropanoyl}amino)-8-azabicyclo[3.2.1]oct-8-yl]pyridine-3-carboxamide] yielded an IC50 of under 200 nM.
With `CC(C)(Oc1ccc(F)cc1Cl)C(=O)N[C@H]1C[C@H]2CC[C@@H](C1)N2c1ccc(S(C)(=O)=O)nc1` [Example 275, 2-[(2-chloro-4-fluorophenyl)oxy]-2-methyl-N-{8-[6-(methylsulfonyl)pyridin-3-yl]-8-azabicyclo[3.2.1]oct-3-endo-yl}propanamide] the IC50 was under 200 nM.
`CC(C)(Oc1ccc(F)cc1Cl)C(=O)N[C@H]1C[C@H]2CC[C@@H](C1)N2c1ccc(-c2noc(C(F)(F)F)n2)cn1` [Example 276, 2-[(2-chloro-4-fluorophenyl)oxy]-2-methyl-N-(8-{5-[5-(trifluoromethyl)-1,2,4-oxadiazol-3-yl]pyridin-2-yl}-8-azabicyclo[3.2.1]oct-3-endo-yl)propanamide] gave an IC50 of under 2000 nM.
With `CC(C)(Oc1ccc(Cl)cc1-c1ccc(F)cc1)C(=O)N[C@H]1C[C@H]2CC[C@@H](C1)N2c1ccc(C(N)=O)cn1` [Example 277, 6-[3-endo-({2-[(5-chloro-4′-fluorobiphenyl-2-yl)oxy]-2-methylpropanoyl}amino)-8-azabicyclo[3.2.1]oct-8-yl]pyridine-3-carboxamide] the IC50 was under 200 nM.
`CC(C)(Oc1ccc(Cl)cc1Cl)C(=O)NC1CC2CCC(C1)N2c1ncc(NC(=O)CC(F)(F)F)cc1Cl` (stereo not drawn) [Example 278, N-{5-chloro-6-[3-endo-({2-[(2,4-dichlorophenyl)oxy]-2-methylpropanoyl}amino)-8-azabicyclo[3.2.1]oct-8-yl]pyridin-3-yl}-3,3,3-trifluoropropanamide] was tested, and the IC50 was under 2000 nM.
For `CC(C)(Oc1ccc(Cl)cc1Cl)C(=O)N[C@H]1C[C@H]2CC[C@@H](C1)N2C(=O)c1ccc(C(N)=O)cc1` [Example 279, 4-{[3-endo-({2-[(2,4-dichlorophenyl)oxy]-2-methylpropanoyl}amino)-8-azabicyclo[3.2.1]oct-8-yl]carbonyl}benzamide], the IC50 was under 2000 nM.
